US12583841B2, “Tetrahydropyrrolocyclic compound and application thereof” (Breakthrough Pharmaceuticals Inc., priority 2021, dated 2026)

What was measured:
OX2R = target: T1, OX2R (Homo sapiens, UniProt O43614); test: FLIPR intracellular calcium antagonism test, HEK293-OX2R cells; assay type: cell-based; details: Orexin A at EC70, read-out: hOX2R IC50
T1 construct: expressed in transfected cells
T1 sequence (O43614 1-444): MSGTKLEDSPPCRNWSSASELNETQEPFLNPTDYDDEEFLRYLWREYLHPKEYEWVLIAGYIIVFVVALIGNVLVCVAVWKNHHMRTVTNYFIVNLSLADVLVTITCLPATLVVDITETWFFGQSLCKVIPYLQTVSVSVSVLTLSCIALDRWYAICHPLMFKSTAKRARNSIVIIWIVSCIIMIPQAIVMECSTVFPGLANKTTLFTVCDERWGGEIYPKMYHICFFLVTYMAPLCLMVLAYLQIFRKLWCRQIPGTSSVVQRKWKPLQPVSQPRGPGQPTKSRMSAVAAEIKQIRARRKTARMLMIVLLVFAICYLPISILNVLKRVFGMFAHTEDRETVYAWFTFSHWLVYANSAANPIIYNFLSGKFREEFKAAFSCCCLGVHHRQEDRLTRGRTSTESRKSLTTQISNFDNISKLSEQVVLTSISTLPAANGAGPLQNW
Experimental: (§1) The change of intracellular calcium signal was detected by FLIPR, and the antagonism of the compounds on OX1R and OX2R receptors was evaluated by using IC50 value of the compounds as an index.
(§2) • Cell lines: Transfected HEK293-OX1R and HEK293-OX2R stable cell lines • HEK293-OX1R cell culture medium (DMEM, Invitrogen #11960-044, 10% serum Gibco #10099141, L-Glutamine 1×, Gibco #25030, sodium pyruvate 1×, Gibco #11360, Geneticin 300 μg/mL, Gibco #10131) • HEK293-OX2R cell culture medium (DMEM, Invitrogen #11960-044, 10% serum Gibco #10099141, L-Glutamine 1×, Gibco #25030, sodium pyruvate 1×, Gibco #11360, Geneticin 300 μg/mL, Gibco #10131, Blasticin 2 μg/mL, Invitrogen #R21001)
(§3) Experimental Steps and Methods: • a) Cell seeding (HEK293-OX1R and HEK293-OX2R cells) • 1) preheating the culture medium, trypsin and DPBS under water bath at 37° C.; pipetting and removing the medium of cell culture and washing same with 10 mL of DPBS; • 2) adding the preheated trypsin to a culture flask, rotating the culture flask so that the trypsin evenly covered the culture flask, and putting the culture flask in a 37° C., 5% CO2 incubator for digestion for 1-2 min; • 3) suspending the cells with 10-15 mL of medium for each T150 and centrifuging at 800 rpm for 5 min; resuspending the cells with 10 mL of medium, pipetting 1 mL of the cell suspension and counting with Vi-cell; • 4) diluting OX1R cells with medium to 5×10^5 cells/mL, and diluting OX2R cells with medium to 4×10^5 cells/mL, and adding the diluted cells to 384 plate (Greiner.781946) with a multi-channel pipette (50 μL/well, 25000 cells/well for OX1R cells, 20000 cells/well for OX2R cells); placing the cell plate in a 37° C., 5% CO2 incubator overnight. • b) Compound loading: • 1) diluting the compound to 20 mM with DMSO, 3-fold dilution, 8 gradients, duplicate wells, and adding same to a compound plate with an Echo liquid handler; then adding 20 μL of buffer to maintain the final concentration of DMSO of 0.1%. • c) FLIPR experiment: • 1) washing off the cell culture medium in the 384 plate with a vacuum pump, adding […] Direct fluorescent dye, incubating in 37° C., 5% CO2 incubator for 1 h, and balancing at room temperature for another 10 min. • 2) EC50 test: manually diluting Orexin A on ice, 3-fold dilution, 8 gradients, duplicate wells; preparing a DMSO plate and keep the DMSO concentration to be 0.5%; putting the cell plate, OrexinA plate, and DMSO plate in FLIPR respectively, and reading the fluorescence value. • 3) calculating the EC70 value based on the EC50 value of Orexin A; preparing a 5×EC70 solution, adding same to 384 compound plate with a multi-channel pipette, and storing on ice; • 4) putting the compound plate, 5×EC70 plate, cell plate, and FLIPR tip in sequence in FLIPR, running the program, and reading the fluorescence value. • d) Data analyzing: using Prism5.0 to analyze the data, and calculating the IC50 value of the compound.

[1] = Drug concentration in cerebrospinal fluid of Beagle dogs; assay type: in vivo; details: male, po, Beagle dog, p.o. 5 mg/kg
Experimental: 2 healthy male Beagle dogs were selected, and after intragastric administration of the test compound at 5 mg/kg, cerebrospinal fluid samples were taken at 0.5 h, 2 h and 6 h after the administration, respectively. Quantitative analysis of all biological samples was carried out by LC-MS/MS method, and the WinNonlin™ Version 6.3 (Pharsight, Mountain View, CA) pharmacokinetic software was used to calculate the relevant pharmacokinetic parameters by the non-compartmental model linear logarithmic trapezoidal method. AUC0-last represents area under the plasma concentration-time curve from time zero to the last detectable concentration time point; p.o. represents oral; i.v. represents intravenous injection; T1/2 represents half-life; CL represents clearance rate; Vd represents apparent volume of distribution; Cmax represents peak concentration; Tmax represents time to peak; F % represents oral bioavailability.

OX1R = target: T2, OX1R (Homo sapiens, UniProt O43613); test: FLIPR intracellular calcium antagonism test, HEK293-OX1R cells; assay type: cell-based; details: Orexin A at EC70, read-out: hOXIR IC50
T2 construct: expressed in transfected cells
T2 sequence (O43613 1-425): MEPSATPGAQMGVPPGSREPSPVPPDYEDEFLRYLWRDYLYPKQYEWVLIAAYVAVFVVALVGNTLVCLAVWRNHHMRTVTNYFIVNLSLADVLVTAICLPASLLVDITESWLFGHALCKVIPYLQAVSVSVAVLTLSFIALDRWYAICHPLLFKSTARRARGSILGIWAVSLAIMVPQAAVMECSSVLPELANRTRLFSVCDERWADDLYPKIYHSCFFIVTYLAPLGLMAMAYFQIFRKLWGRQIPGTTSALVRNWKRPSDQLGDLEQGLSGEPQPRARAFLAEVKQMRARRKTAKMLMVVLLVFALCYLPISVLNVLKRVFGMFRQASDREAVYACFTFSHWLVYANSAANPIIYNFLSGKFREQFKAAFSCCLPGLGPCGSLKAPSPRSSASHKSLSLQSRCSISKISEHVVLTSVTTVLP
Experimental: as §1, §2, §3

IC50 (OX2R): 42 nM
concentration at 0.5 h ([1]; 0.5 h): 1160 nM
concentration at 2 h ([1]; 2 h): 773 nM
concentration at 6 h ([1]; 6 h): 110 nM
IC50 (OX1R): 1790 nM
SMILES: COc1ccc(-n2nccn2)c(C(=O)N2C(c3nc4ccc(OC)cc4[nH]3)CC3CC32)c1 (centres unmarked) [Compound 8]
